Legend:
PPARγ [1] = molecular target: T1, PPARγ (Homo sapiens, UniProt P37231); assay: 3xPPRE luciferase reporter in HEK293 cells, antagonism of Rosi activation; type: cell-based
T1 construct: gene PPARG; human PPARγ2 expressed in HEK-293 cells
T1 sequence (P37231 1-505): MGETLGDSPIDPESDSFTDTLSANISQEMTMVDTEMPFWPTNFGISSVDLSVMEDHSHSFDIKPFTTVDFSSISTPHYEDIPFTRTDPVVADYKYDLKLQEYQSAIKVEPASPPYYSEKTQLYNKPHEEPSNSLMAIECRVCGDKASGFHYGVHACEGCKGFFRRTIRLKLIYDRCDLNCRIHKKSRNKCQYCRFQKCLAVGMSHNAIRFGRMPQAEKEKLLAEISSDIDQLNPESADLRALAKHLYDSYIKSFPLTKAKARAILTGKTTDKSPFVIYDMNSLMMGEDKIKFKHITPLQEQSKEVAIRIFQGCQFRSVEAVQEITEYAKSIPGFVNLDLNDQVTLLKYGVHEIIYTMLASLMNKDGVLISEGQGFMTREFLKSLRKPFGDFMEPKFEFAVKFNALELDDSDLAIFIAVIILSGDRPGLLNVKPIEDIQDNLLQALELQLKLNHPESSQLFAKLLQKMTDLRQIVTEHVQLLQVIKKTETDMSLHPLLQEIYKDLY

PPARγ [2] = molecular target: T2, PPARγ (Homo sapiens, UniProt P37231); assay: X-ray co-crystal structure at […] Å; fluorescence polarization competition binding with GST-tagged LBD
T2 construct: gene PPARG
T2 sequence (P37231 223-505): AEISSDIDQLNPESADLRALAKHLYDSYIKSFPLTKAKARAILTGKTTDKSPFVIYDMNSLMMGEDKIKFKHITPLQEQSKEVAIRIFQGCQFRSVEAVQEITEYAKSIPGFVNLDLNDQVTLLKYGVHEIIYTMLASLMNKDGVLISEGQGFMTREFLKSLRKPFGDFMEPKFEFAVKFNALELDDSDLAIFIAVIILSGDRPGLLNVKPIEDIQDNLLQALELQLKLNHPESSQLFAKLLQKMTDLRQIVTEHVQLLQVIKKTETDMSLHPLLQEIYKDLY

Structure (SMILES)	3xPPRE luciferase reporter in HEK293 cells, antagonism of Rosi activation (PPARγ [1])	IC50 (PPARγ [2]) [µM]
O=C(Nc1ccccc1)c1cc([N+](=O)[O-])ccc1Cl [GW, GW9662]	GW9662 significantly diminished the activation of 3xPPRE reporter by Rosi	–
N#Cc1c(C2CCCCC2)nc(Sc2ccc(C(F)(F)F)cc2[N+](=O)[O-])[nH]c1=O [TPMD, 4-cyclohexyl-2-((2-nitro-4-(trifluoromethyl)phenyl)thio)-6-oxo-1,6-dihydropyrimidine-5-carbonitrile]	–	~5
